The record followed here is PMC11783400, “Assessment of Potential Drug–Drug Interactions for Novel Oral Melanocortin‐1 Receptor Agonist Dersimelagon” (Pharmacology Research & Perspectives, 2025).

In one data set the target is T1, CYP2B6 (Homo sapiens, UniProt P20813).
T1 construct: native enzyme in human liver microsomes
T1 sequence (P20813 1-491): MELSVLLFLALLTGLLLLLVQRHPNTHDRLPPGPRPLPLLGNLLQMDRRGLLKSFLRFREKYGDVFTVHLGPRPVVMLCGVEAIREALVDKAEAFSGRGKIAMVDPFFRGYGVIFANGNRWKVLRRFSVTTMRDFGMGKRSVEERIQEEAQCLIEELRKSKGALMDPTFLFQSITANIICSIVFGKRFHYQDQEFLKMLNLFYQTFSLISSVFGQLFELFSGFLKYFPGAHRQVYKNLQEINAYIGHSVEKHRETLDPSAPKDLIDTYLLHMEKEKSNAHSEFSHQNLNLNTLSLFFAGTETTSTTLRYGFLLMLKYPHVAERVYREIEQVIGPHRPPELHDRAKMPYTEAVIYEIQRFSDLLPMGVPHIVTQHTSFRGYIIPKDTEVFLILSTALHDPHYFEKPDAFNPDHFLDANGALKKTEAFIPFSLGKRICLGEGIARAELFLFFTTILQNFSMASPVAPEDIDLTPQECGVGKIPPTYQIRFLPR
In words: CYP activity inhibition in human liver microsomes. In kind it is biochemical. The settings on record: read-out: IC50 (μM) / Direct inhibition. The source says:
CYP activity inhibition in human liver microsomes on CYP2B6

Another data set has as its target T2, UGT1A3 (Homo sapiens, UniProt P35503).
T2 construct: native enzyme in human liver microsomes
T2 sequence (P35503 29-534): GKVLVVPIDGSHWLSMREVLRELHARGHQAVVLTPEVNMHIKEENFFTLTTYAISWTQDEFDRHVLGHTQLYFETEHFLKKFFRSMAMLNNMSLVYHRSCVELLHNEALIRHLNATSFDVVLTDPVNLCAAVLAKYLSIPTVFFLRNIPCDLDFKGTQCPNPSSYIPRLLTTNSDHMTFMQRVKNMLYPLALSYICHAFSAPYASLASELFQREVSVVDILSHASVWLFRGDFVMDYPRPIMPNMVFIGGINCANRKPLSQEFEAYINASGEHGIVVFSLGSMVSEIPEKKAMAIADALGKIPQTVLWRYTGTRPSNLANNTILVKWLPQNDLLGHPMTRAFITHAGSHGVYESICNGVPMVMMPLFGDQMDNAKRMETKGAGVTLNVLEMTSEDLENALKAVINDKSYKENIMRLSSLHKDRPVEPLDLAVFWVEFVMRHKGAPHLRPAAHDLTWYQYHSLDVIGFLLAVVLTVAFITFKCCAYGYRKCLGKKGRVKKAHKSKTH
Briefly: glucuronidation inhibition in human liver microsomes. In kind it is biochemical. As to conditions: substrate chenodeoxycholic acid; direct inhibition. The text has this:
glucuronidation inhibition in human liver microsomes on UGT1A3

Data set [1] deals with T3, BCRP (breast cancer resistance protein) (Homo sapiens, UniProt Q9UNQ0).
T3 construct: gene ABCG2; endogenous transporter in Caco-2 cell monolayers
T3 sequence (Q9UNQ0 1-655): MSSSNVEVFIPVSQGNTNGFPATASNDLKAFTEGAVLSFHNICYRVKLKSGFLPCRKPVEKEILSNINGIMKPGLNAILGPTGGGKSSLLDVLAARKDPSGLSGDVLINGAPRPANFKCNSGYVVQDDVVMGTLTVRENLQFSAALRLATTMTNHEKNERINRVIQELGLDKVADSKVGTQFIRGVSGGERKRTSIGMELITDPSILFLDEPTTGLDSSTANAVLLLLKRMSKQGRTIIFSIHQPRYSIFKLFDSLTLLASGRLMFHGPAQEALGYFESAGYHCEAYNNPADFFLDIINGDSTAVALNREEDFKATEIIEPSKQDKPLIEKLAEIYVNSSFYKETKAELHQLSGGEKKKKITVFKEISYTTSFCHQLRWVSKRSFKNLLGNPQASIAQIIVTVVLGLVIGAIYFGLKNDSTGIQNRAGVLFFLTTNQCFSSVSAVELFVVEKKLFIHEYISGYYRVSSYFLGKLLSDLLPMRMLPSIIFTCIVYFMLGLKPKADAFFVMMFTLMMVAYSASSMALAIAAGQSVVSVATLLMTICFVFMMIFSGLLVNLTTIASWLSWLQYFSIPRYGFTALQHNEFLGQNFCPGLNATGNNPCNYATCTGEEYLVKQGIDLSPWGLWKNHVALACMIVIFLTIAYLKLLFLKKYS
In words: transport inhibition in Caco-2 monolayers. In kind it is cell-based. The text has this:
transport inhibition in Caco-2 monolayers on BCRP (breast cancer resistance protein)

Another data set concerns the target T4, CYP3A4 (Table 1); CYP3A (Homo sapiens, UniProt P08684).
T4 construct: native enzyme in human liver microsomes
In words: CYP activity inhibition in human liver microsomes. Type of data set: biochemical. As to conditions: read-out: IC50 (μM) / Direct inhibition. The source says:
CYP activity inhibition in human liver microsomes on CYP3A4 (Table 1); CYP3A (text)

For the next data set, the target named is T5, CYP1A2 (Homo sapiens, UniProt P05177).
T5 construct: native enzyme in human liver microsomes
T5 sequence (P05177 2-516): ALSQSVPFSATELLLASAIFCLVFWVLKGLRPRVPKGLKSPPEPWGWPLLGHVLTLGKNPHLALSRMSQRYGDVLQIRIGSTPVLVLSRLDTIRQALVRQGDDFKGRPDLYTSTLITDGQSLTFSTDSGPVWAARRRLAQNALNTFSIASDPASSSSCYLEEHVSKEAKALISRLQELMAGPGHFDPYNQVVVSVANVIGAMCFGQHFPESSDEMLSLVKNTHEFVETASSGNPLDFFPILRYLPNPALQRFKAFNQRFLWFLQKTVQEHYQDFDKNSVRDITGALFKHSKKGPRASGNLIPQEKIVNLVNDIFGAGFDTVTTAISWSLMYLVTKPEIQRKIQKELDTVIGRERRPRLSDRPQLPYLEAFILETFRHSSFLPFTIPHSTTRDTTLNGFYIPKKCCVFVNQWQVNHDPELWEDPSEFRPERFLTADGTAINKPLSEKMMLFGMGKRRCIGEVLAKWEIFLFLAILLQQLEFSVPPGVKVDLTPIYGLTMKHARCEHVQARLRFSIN
In words: CYP activity inhibition in human liver microsomes. As to conditions: read-out: IC50 (μM) / Direct inhibition. Type of data set: biochemical. The text has this: CYP activity inhibition in human liver microsomes on CYP1A2

T4 sequence (P08684 2-503): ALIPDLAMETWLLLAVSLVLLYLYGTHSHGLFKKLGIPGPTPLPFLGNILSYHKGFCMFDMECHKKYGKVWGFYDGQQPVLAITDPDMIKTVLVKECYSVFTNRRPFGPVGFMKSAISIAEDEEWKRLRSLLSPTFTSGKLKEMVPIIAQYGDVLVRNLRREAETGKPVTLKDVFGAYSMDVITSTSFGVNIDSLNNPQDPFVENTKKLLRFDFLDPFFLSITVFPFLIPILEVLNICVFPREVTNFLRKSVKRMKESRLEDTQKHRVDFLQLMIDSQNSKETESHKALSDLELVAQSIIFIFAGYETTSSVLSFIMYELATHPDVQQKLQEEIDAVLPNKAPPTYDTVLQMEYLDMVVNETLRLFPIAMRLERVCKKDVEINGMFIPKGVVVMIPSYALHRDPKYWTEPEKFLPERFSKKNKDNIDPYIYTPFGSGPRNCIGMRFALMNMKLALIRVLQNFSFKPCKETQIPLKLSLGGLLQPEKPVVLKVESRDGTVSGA

As to `COC[C@H]1CN(C(=O)[C@]2(F)CN(C3CCCC3)C[C@H]2c2ccc(OC)cc2)C[C@@H]1c1ccc(C(F)(F)F)cc1N1CCC(C(=O)O)CC1` [dersimelagon], the IC50 on CYP2B6 is 48.9 µM; on UGT1A3, 22.6 µM; in data set [1], 0.467 µM; on CYP3A4 (Table 1); CYP3A, 74.6 µM; on CYP1A2, greater than 100 µM.
